From patent EP0495226B1, “3-Aryl-5-alkylthio-4H-1,2,4-triazoles for treatment of hyperreflexia due to spinal trauma” (priority 1990, dated 1992)
Like-named read-outs stand apart in the source and are kept apart here.

How the values were obtained:
[1] = system: heightened spontaneous hind limb movements; assay: Spontaneous hind limb reflex activity in spinally transected rats (hyperreflexia); assay type: in vivo; settings: for Integrated Activity, % of Control: ip, 30 minutes after dosing, spinally transected rats; for muscle spasticity: intraperitoneally
Description: The effectiveness of the compounds of this invention for treating muscle spasticity resulting from spinal trauma was tested in rats with heightened spontaneous hind limb movements. Four to six weeks before testing, anesthetized rats were spinally transected at the mid-thoracic level, resulting in this form of spontaneous limb activity. 4-Methyl-3-phenyl-5-methylsulfonyl-4H-1,2,4-triazole or clonidine were given intraperitoneally, and after 30-minutes reflex activity was measured in treated animals and untreated controls by a computerized apparatus designed to record, integrate and analyze this activity. […]

[2] = system: strychnine-induced seizures; assay: animal or person; assay type: in vivo, mice; settings: for ED50: Mus musculus, read-out: ED₅₀
Description: Groups of 10 to 20 male mice are administered one or more doses of test compound in an appropriate vehicle or, for comparison, the vehicle alone. At a selected time thereafter, strychnine sulfate, prepared as a solution in distilled water, is administered intraperitoneally at a dose of 2.7 mg/kg. […] Absence of tonic extension for greater than 15 minutes after strychnine administration is considered significant protection.

With `Cn1c(-c2ccccc2)nnc1S(C)(=O)=O` [4-Methyl-3-phenyl-5-methylsulfonyl-4H-1,2,4-triazole] the “Integrated Activity, % of Control” value ([1]; 5.0 mg/kg) was 137 ± 10 % of Control, the “Integrated Activity, % of Control” value ([1]; 10.0 mg/kg) was 42.9 ± 12.7 % of Control and the “Integrated Activity, % of Control” value ([1]; 20.0 mg/kg) was 75.3 ± 19.3 % of Control. The “Integrated Activity, % of Control” value ([1]; 40.0 mg/kg) was 51.3 ± 11.9 % of Control, the muscle spasticity ([1]; rats treated with more than 5 mg/kg) was “substantial reduction” and the ED50 ([2]; ip) was 12.8 mg/kg. The ED50 ([2]; po) was 7.3 mg/kg.

Molecule `CCSc1nnc(-c2ccccc2F)n1C` [4-methyl-3-(2-fluorophenyl)-5-ethylthio-4H-1,2,4-triazole] has an ED50 ([2]; ip) of 18.6 mg/kg and an ED50 ([2]; po) of 15.1 mg/kg.

`CC[S+]([O-])c1nnc(-c2ccccc2)n1C` (stereo not drawn) [4-methyl-3-phenyl-5-ethylsulfinyl-4H-1,2,4-triazole] was tested, and the ED50 ([2]; ip) was 14.4 mg/kg and the ED50 ([2]; po) was 8.1 mg/kg.

Molecule `CCS(=O)(=O)c1nnc(-c2ccccc2)n1C` [4-methyl-3-phenyl-5-ethylsulfonyl-4H-1,2,4-triazole] has an ED50 ([2]; ip) of 19.3 mg/kg and an ED50 ([2]; po) of 8.5 mg/kg.

For `Clc1cccc(Cl)c1N=C1NCCN1` [Clonidine, clonidine, reference compound], the “Integrated Activity, % of Control” value ([1]; 3.1 µg/kg) was 130.2 ± 43.9 % of Control, the “Integrated Activity, % of Control” value ([1]; 12.5 µg/kg) was 50.4 ± 9.8 % of Control and the “Integrated Activity, % of Control” value ([1]; 50.0 µg/kg) was 32.5 ± 9.5 % of Control. For the same molecule, the muscle spasticity ([1]; rats treated with more than 3.1 µg/kg) was “substantial reduction”.

In the case of `CN1C(=O)CN=C(c2ccccc2)c2cc(Cl)ccc21` [Diazepam, reference compound], the ED50 ([2]; ip) is reported as 1.2 mg/kg.

With `Clc1ccc2nsnc2c1NC1=NCCN1` [Tizanidine, reference compound] the maximal protection ([2]; at 3.1 mg/kg i.p., doses of up to 50 mg/kg do not cause a greater effect, mice) was 60%.

With `NCC(CC(=O)O)c1ccc(Cl)cc1` (stereo not drawn) [baclofen, reference compound] the “antagonism of strychnine-induced seizures” value ([2]; dosage range of from 12.5 to 200 mg/kg i.p., mice) was “over 50%” and the protection ([2]; no dose (12.5 to 200 mg/kg i.p.) causes 100% protection, mice) was under 100%.
